Activity calls are given as the source filed them. Rule as the data show it, for most assays here: actives have a measured EC50 and inactives only a lower limit.

For experiment [1], the target named is Serine/threonine-protein phosphatase PP1-alpha catalytic subunit (Homo sapiens, UniProt P62136). Kind of experiment: inhibition of protein phosphatase 1 activity – biochemical, fluorescence, dose response (AID 2394).
Experiment [2] concerns the target T1, Apoptotic protease-activating factor 1 (Homo sapiens, UniProt O14727).
T1 sequence (O14727 whole entry): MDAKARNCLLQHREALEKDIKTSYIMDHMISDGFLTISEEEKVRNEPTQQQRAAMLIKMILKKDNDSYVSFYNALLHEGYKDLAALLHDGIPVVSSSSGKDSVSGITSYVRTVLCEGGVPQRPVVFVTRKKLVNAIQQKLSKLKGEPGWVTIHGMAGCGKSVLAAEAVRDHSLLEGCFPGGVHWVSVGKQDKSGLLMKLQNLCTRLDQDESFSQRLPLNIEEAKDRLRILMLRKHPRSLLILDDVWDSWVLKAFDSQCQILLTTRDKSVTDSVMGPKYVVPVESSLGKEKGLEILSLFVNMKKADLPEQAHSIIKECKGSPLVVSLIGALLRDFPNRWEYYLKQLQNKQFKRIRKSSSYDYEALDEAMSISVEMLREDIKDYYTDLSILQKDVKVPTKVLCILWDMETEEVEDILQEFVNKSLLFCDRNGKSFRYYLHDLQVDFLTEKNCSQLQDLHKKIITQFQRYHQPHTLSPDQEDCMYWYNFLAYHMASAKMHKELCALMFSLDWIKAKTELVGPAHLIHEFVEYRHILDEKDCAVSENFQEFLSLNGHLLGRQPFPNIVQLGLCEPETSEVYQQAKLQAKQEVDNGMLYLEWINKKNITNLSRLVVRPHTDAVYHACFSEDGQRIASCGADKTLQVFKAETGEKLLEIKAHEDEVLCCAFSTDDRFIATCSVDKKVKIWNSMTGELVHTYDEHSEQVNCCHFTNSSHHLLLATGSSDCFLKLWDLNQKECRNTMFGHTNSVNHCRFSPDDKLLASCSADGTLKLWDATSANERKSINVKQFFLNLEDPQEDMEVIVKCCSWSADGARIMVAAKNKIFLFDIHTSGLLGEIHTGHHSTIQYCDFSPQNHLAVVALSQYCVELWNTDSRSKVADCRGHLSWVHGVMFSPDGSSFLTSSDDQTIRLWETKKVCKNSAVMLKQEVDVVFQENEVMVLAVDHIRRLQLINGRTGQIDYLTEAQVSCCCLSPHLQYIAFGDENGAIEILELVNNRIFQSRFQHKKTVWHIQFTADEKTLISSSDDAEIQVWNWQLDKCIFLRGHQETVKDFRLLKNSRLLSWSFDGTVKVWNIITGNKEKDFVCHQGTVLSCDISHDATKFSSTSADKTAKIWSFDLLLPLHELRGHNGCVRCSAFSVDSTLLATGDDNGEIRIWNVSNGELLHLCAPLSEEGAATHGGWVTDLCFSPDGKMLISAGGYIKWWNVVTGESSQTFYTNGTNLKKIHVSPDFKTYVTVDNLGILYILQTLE
Type of experiment: functional.

For experiment [3], the target named is T2, Heat shock factor protein 1 (Mus musculus, UniProt P38532).
T2 sequence (P38532 whole entry): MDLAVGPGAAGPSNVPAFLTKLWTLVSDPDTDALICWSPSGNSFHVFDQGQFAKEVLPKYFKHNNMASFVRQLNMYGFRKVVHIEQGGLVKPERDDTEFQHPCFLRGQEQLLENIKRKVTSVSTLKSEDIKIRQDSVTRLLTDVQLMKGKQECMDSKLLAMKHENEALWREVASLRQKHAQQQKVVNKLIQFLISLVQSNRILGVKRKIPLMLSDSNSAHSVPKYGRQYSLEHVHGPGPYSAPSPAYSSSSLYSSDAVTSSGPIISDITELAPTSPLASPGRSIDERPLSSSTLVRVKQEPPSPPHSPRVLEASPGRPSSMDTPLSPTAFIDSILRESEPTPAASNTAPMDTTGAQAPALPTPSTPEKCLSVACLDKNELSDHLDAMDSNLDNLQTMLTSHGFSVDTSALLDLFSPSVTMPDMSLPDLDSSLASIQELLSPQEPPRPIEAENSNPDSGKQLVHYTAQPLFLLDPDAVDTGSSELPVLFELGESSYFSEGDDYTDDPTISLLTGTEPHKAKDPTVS
Kind of experiment: decrease of HSF1-responsive luciferase luminescence – cell-based, NIH3T3, dose retest, confirmation (AID 2382).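 Also: NIH3T3 fibroblasts with HSF1-driven luciferase reporter stressed by proteasome inhibitor MG132; luminescence from HSF1-driven luciferase expression after 8 hours of MG132 stress.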 Format: functional.

For experiment [4], the target named is G-protein coupled receptor 55 (Homo sapiens, UniProt Q9Y2T6). The experiment can be described thus: inhibition of LPI-stimulated GPR55 beta-arrestin translocation – imaging, U2OS, beta-arrestin-GFP, LPI agonist, primary screen (AID 2013).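 Also: antagonist potency measured as reduced agonist-driven arrestin aggregation.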 Format: functional.
Chain of G-protein coupled receptor 55 (Q9Y2T6 whole entry): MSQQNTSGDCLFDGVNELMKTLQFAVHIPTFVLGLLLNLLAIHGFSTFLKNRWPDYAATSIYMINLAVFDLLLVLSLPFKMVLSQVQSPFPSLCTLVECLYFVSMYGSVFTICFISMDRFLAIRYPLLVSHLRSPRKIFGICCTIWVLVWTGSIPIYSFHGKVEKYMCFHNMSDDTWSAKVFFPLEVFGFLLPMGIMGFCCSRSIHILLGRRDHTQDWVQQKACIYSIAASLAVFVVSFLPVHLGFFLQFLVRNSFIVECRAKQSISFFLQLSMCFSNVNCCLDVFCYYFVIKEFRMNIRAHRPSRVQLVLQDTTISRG
Experiment [5] is described as follows: NIH-3T3 fibroblast cytotoxicity, dose response, cytotoxicity control, cell-based, fluorescence, Alamar Blue, secondary assay (AID 2327).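 Also: NIH-3T3 mouse fibroblasts cultured with fluconazole at 8 µg/mL.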 Type of experiment: functional. In general terms: The colour change of resazurin is a common sign of viable cells or microbes.
The target of experiment [6] is T3, Serine/threonine-protein phosphatase (Candida dubliniensis (strain CD36 / CBS 7987 / NCPF 3949 / NRRLY-17841) (Yeast), UniProt B9W6M3).
T3 sequence (B9W6M3 whole entry): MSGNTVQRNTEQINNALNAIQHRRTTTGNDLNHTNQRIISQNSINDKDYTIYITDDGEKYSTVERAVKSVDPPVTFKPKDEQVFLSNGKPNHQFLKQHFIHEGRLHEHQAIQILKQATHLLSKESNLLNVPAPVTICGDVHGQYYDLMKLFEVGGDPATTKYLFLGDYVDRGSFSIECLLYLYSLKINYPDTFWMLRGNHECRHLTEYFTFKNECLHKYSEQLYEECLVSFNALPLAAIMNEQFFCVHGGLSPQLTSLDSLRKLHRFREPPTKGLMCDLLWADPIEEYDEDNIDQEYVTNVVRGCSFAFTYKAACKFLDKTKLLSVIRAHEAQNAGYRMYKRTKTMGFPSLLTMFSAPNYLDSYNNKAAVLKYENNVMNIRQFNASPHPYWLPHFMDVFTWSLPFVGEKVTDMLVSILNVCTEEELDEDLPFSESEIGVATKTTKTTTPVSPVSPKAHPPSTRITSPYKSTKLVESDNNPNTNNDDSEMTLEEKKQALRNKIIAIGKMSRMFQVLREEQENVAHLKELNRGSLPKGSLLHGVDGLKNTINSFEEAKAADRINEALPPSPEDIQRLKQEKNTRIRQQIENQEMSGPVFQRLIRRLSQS
Kind of experiment: blockers of CaCl2-induced CDRE-lacZ signaling – S. cerevisiae, luminescence, secondary, dose response (AID 2388).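 Also: yeast reporter cells carrying a calcineurin-responsive lacZ construct stimulated with calcium chloride; luminescent beta-galactosidase reporter signal in whole cells rather than isolated phosphatase activity; potency for inhibition where a drop in reporter signal means calcineurin blockade.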 Format: functional, cell-based.

The next experiment deals with Streptococcus. The experiment can be described thus: GAS UMAA2166 growth inhibition – luminescence, BacTiterGlo, counter-screen for streptokinase expression inhibitor project, dose response (AID 1915).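 Also: potency for reduction of bacterial viability or growth.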 Type of experiment: functional, organism-based. (In general: The purpose of a counterscreen is to sort out artefacts and off-target activity.)

Chain of Serine/threonine-protein phosphatase PP1-alpha catalytic subunit (P62136 whole entry): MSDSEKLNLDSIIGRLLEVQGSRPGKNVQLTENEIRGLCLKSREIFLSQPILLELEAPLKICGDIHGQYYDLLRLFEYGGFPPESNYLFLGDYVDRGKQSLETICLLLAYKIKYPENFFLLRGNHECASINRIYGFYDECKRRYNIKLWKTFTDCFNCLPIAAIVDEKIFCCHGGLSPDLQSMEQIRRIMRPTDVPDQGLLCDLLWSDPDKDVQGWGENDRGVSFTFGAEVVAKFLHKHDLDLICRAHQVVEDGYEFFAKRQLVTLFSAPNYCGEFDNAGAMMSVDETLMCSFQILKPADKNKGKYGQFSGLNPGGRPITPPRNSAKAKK

On to `Oc1ccc(/C=N\Nc2cc(N3CCOCC3)nc(N3CCOCC3)n2)c(O)c1`, for which the IC50 in experiment [1] was > 67 µM (not active); in experiment [2], 7.15 µM (active).

Turning to `COc1cc(NC(=O)Cn2ncc(Cl)c(Cl)c2=O)c(C)cc1[N+](=O)[O-]`, in experiment [3], the concentration giving a half-maximal response (EC50) is 4.33 µM (active). In addition, in experiment [4], the IC50 was 3.52 µM (active).

As for `Cc1ccc(C)c(S(=O)(=O)N2CCN(Cc3ccc(O)c4ncccc34)CC2)c1`, the EC50 in experiment [5] was 81.5 µM (active); in experiment [6] it was 36 µM (active); in the experiment on Streptococcus, 15 µM (active).

By IC50 is commonly meant the concentration that inhibits the measured activity by half. As usually defined, the EC50 is the concentration giving half of the maximal effect.

The record behind these values is ChEMBL document CHEMBL1201862, “PubChem BioAssay data set” (2004).
